# Reference: US6750214B2, “Quinoline and quinazoline compounds useful in therapy” (priority 1995, dated 2004)
# Tested on: human prostate
# Experiment: Contractile responses of human prostate
# Details: antagonist affinity estimate against (−)-noradrenaline contractions of human prostatic tissue strips; single antagonist concentration, incubated 2 hours
# Experimental: Contractile Responses of Human Prostate
# Prostatic tissue was cut into longitudinal strips (approximately 3×2×10 mm) and suspended in organ baths under a resting tension of 1 g in Krebs Ringer bicarbonate of the following composition (mM): NaCl (119), KCl (4.7), CaCl2 (2.5), KH2PO4 (1.2), MgSO4 (1.2), NaHCO3 (25), glucose (11), and gassed with 95% O2/5% CO2. The solution also contained 10 mM cocaine and 10 mM corticosterone. Tissues were exposed to a sensitising dose of (−)-noradrenaline ([…]) and washed over a 45 minute period. Isometric contractions were obtained in response to cumulative additions of (−)-noradrenaline to obtain control curves in all tissues. A further curve was then generated in the presence or absence of antagonist (incubated for 2 hours). Antagonist affinity estimates (pA2) were determined using a single concentration of competing antagonist, pA2=−log [A]/(DR-1) where the dose ratio (DR), relative to corresponding controls, was produced by a single concentration of antagonist [A], assuming competitive antagonism and Schild regression close to unity.
smiles,measurement,value
"COc1cc2nc(N3CCCN(C(=O)N4C[C@H](O)[C@@H](O)C4)CC3)nc(N)c2c(-c2ccccc2)c1OC.Cl [Example 17, 4-Amino-6,7-dimethoxy-2-{4-[1-(3S,4S-dihydroxypyrrolidine)carbonyl]-1,4-diazepan-1-yl}-5-phenylquinazoline hydrochloride]",pA2 value,8.5
